# Assay results reported in patent US6066333A, “Pharmaceutical control of inflammation” (William Harvey Research Limited, priority 1994, dated 2000).
# Entries after “also recorded” stand apart in the source; their conditions may differ.
# Key:
# carrageenin pleurisy [1] = assay: rat carrageenin pleurisy model of acute inflammation (Example 1); format: in vivo; conditions: for Exudate Volume / Total Cells 10^6: mean ± s.e. mean; for effect on inflammation (exudate volumes and cell numbers) at 6 hours: compared to controls; for increase of exudate volume (cell exudate) compared to vehicle control: SnPP 2 x 40 μmoles/kg s.c.
# Procedure: Male Wistar rates 200±20 grams (Tuck & Sons Ltd., Essex, UK) were used for inflammation. Animals were administered either with 15 mg/kg Ferriprotoporphrin IX chloride (FePP) by intravenous injection--18 hours before inflammation or with 2 doses of 40 μmoles/kg Tin protoporphyrin dichloride (SnPP) by sub-cutaneous injection--18 hours and at the time of inflammation induction (porphyrins were obtained from Porphyrin Products Inc., Logan, Utah). Drugs were prepared in 0.1N NaOH and mixed 1:1 with saline, these were then adjusted to pH 7.4, drug vehicle. The total volume injected was 0.2 ml. Control animals received vehicle only.
# Carrageenin pleurisy was induced in rats and cell pellet prepared as previously described by Tomlinson et al.
# Results are expressed as the mean ± s.e. mean. Statistical analysis was determined by Mann-Whitney U-test, with a P value of <0.05 considered significant.
# The effect of heme-oxygenase inhibitor Tin protoporphyrin dichloride (SnPP) and inducer ferriprotoporphyrin IX chloride (FePP) on acute inflammation was examined. Treatment animals received either 2 doses of 40 μmoles/kg SnPP s.c.--18 and 0 hours before induction of inflammation, or 1 doses of 15 mg/kg FePP i.v--18 before inflammation. Treatment animals were compared to control animals which had received vehicle only by the appropriate route.***P<0.001.
# carrageenin pleurisy [2] = assay: rat carrageenin pleurisy, dose response of HO modulators (Example 2); format: in vivo; conditions: for effect on the inflammatory lesion compared to vehicle control at 6 hours: 6 hours after carrageenin, PMNs phase (data not shown); for effect on inflammation at 24 hours (dose dependence): 3, 10 or 30 μmoles/kg
# Procedure: Animals received 2 doses of either 3, 10 or 30 μmoles/kg SnPP (a HO inhibitor) or vehicle control--18 hours and at the time of inflammation induction. Animals received 1 dose of either 3, 10 or 30 μmoles/kg FePP (a HO inducer) or vehicle control--18 hours before induction of inflammation, n=9.
# Male Wistar rats 200+20 grams were anaesthetized with halothane and 150 ul of a 1% carrageenin solution in 0.9% NaCl injected into the pleural cavity. Exudates were collected 2, 6, 12, 24 and 48 hours after injection of the irritant by pleural lavage with 1 ml protease inhibitory buffer containing: trisodium citrate 3.15%, phenylmethylsulfonyl fluoride 1 mM (Sigma Chemical Co., Poole, UK), pepstatin A 1.5 mM (Sigma) and leupeptin 0.2 mM (Sigma) in 10 mM phosphate buffered (PBS) pH 7.3. Any exudates with blood contamination were rejected. Cells were counted using a Coulter counter, model DN (Coulter Electronics Ltd., Luton, UK). Each sample was centrifuged at 800 g for 10 minutes and the resultant cell pellet prepared as outlined below.
# Results are expressed as the mean ± s.e.mean for (n) experiments. Statistical analysis was determined Student's unpaired t test, with a P value of <0.05 considered significant.
# To investigate whether increased HO activity was not only associated with tissue protection but also involved in resolving acute inflammation we used an HO inhibitor, tin protoporphyrin (SnPP), administered sub-cutaneously 18 hours before and at the time of carrageenin injection, and an HO inducer, ferriprotoporphyrin IX chloride (FePP), given […] 18 hours before induction of the inflammation (Maines MD et al., FASEB J. 1988; 2:2557-2568).
# heme-oxygenase = assay: HO activity of 24 hour inflammatory cells after porphyrin treatment; format: in vivo, rat; conditions: FIGS. 15 and 16
# Procedure: Cells are lysed by sonication for 10 seconds in protease inhibitory buffer. Heme-oxygenase is assayed as previously described. […] The reaction is started by the addition of the heme, incubated at 37° C. for 30 minutes and stopped by the addition of excess cold heme and bilirubin followed by placing on ice. 2 μl of reaction mixture is spotted twice onto a silica gel thin-layer chromatography sheet. The chromatogram is developed using a 20:1 dilution of chloroform:acetic acid. Spots corresponding to hem and bilirubin are were cut out and placed in 10 ml of scintillation fluid to be counted. […] The activity is expressed as pmoles bilirubin/mg protein/hour, n=9. Results are expressed as the mean ± s.e.mean.
# [3] = test system: heme-oxygenase (spleen homogenates); assay: heme-oxygenase activity in rat spleen homogenates; format: biochemical; conditions: 0.1-10 mM (sodium nitroprusside 0.001-10 mM)
# Procedure: (§1) The brains and spleens of male Wistar rats (160±20 g, Tuck Co. UK) were homogenized using a glass homogenizer, in protease inhibitory buffer; phenylmethylsulfonyl fluoride 1 mM, pepstatin A 1.5 mM and leupeptin 0.2 mM, in 10 mM phosphate buffered saline pH 7.3. Protein determinations were carried by the Bradford method, bovine serum albumin was used as protein standard.
# (§2) Heme-oxygenase activity was assayed as previously described (Sierra, E. E. et al., (1992) Analytical Biochem. 200, 27-30).
# (§3) Briefly, the 15 μl reaction mixture consisted of 11.2 μM [^14 C] heme (specific activity 54 Ci/mol), 1 mM NADPH, 2 mM glucose-6-phosphate, 0.1 units of glucose-6-phosphate dehydrogenase, 3 mg/ml liver cytosolic protein, 100-50 μg of sample protein and the relevant concentration of test drugs; L-arginine, D-arginine, NG-nitro-L-arginine methyl ester (L-NAME) or sodium nitroprusside. The reaction mixture containing the test drugs was allowed to equilibrate at 37° C. for 15 mins before the reaction was started by the addition of the heme. The reaction was terminated after 30 mins by the addition of excess cold heme and bilirubin and placed on ice. The reaction mixture was spotted on to the silica gel thin-layer chromatography sheet by 2, 2 μl applications. All samples were run in duplicate. The chromatogram was developed using a 20:1 dilution of chloroform:acetic acid. Spots corresponding to heme and bilirubin were excised and placed in 10 ml of scintillation fluid to be counted. The data was calculated as pmols bilirubin formed/mg protein/hour.
# (§4) Statistical analysis of the raw data was carried using Student's unpaired t test. Results expressed as mean ± s.e.mean with P<0.05 considered as significant.
# [4] = test system: heme-oxygenase (brain homogenates); assay: heme-oxygenase activity in rat brain homogenates; format: biochemical; conditions: for effect on brain HO activity: 0.1-10 mM (sodium nitroprusside 0.001-10 mM)
# Procedure: as §1, §2, §3, §4
# [5] = 6 hours after carrageenin, SnPP 2 x 40 μmoles/kg s.c. (-18 and 0 h) or FePP 15 mg/kg i.v. (-18 h)
# [6] = 6 hours after carrageenin, SnPP 2 x 40 μmoles/kg s.c. or FePP 15 mg/kg i.v.
# [7] = 24 hours after carrageenin, SnPP 2 x 40 μmoles/kg s.c. or FePP 15 mg/kg i.v.
# [8] = 24 hours, FePP 15 mg/kg i.v., P<0.001
# [9] = 24 hours, FePP 3 μmole/kg, 1 dose s.c. 18 hours before
SMILES,Exudate Volume (carrageenin pleurisy [1]; [5]) [mL],Total Cells 10^6 (carrageenin pleurisy [1]; [6]),effect on inflammation (exudate volumes and cell numbers) at 6 hours (carrageenin pleurisy [1]),Exudate Volume (carrageenin pleurisy [1]; [7]) [mL],Total Cells 10^6 (carrageenin pleurisy [1]; [7]),effect on the inflammatory lesion compared to vehicle control at 6 hours (carrageenin pleurisy [2]),effect on inflammation at 24 hours (dose dependence) (carrageenin pleurisy [2]; 24 hours),HO activity of inflammatory pellets after treatment (heme-oxygenase),effect on spleen HO activity [3],effect on brain HO activity [4],further results
"C=CC1=C(C)c2cc3[n-]c(cc4[n-]c(cc5nc(cc1n2)C(C)=C5C=C)c(C)c4CCC(=O)O)c(CCC(=O)O)c3C.[Cl-].[Fe+3] [FePP, Ferriprotoporphrin IX chloride]",0.99 ± 0.11,50 ± 8 10^6,not significantly modified,0.37 ± 0.07,45 ± 6 10^6,Neither SnPP or FePP treatments had an effect,dose dependant suppression of inflammatory cell number and exudate volume,increase,,,"effect on inflammation (exudate volumes and cell numbers) at 6 hours (carrageenin pleurisy [1]; listed as hemin): no significant effect; decrease of cell number (total cells) compared to vehicle control (carrageenin pleurisy [1]; [8]): 50%; decrease of exudate volume (cell exudate) compared to vehicle control (carrageenin pleurisy [1]; [8]): 73%; decrease of exudate volume (cell exudate) compared to vehicle control (carrageenin pleurisy [1]; 24 hours, FePP 15 mg/kg i.v., P<0.001, listed as hemin): 83%; degree of suppression compared with conventional anti-inflammatories or steroids in this model (carrageenin pleurisy [2]; 24 hours): greater than that seen with optimal doses of conventional anti-inflammatories or steroids; reduction of exudate volume compared to vehicle control (carrageenin pleurisy [2]; [9]): 55%; reduction of inflammatory cell number compared to vehicle control (carrageenin pleurisy [2]; [9]): 90%"
N=C(N)NCCC[C@H](N)C(=O)O [L-arginine],,,,,,,,,not modified; also recorded: no effect,dose dependent decrease; also recorded: decreased heme-oxygenase activity,"decrease in brain HO activity ([4]; 10 mM, vs control without compound, 30 min): 75%"
N=C(N)NCCC[C@@H](N)C(=O)O [D-arginine],,,,,,,,,not modified; also recorded: no effect,no significant effect,
"C=CC1=C(C)C2=Cc3c(C=C)c(C)c4[n]3[Sn]([Cl])([Cl])[n]3c(c(C)c(CCC(=O)O)c3=CC3=NC(=C4)C(C)=C3CCC(=O)O)=CC1=N2 [SnPP, Tin protoporphyrin dichloride]",1.59 ± 0.12,67 ± 6 10^6,not significantly modified,1.80 ± 0.21,58 ± 6 10^6,Neither SnPP or FePP treatments had an effect,dose dependant increase in inflammatory exudate,reduction of HO activity,,,"effect on inflammation (exudate volumes and cell numbers) at 6 hours (carrageenin pleurisy [1]; listed as tin Protoporphyrin-IX): no significant effect; increase of exudate volume (cell exudate) compared to vehicle control (carrageenin pleurisy [1]; 24 hours, P<0.001): 128%; increase of exudate volume (cell exudate) compared to vehicle control (carrageenin pleurisy [1]; 24 hours, P<0.001, listed as tin Protoporphyrin-IX): 135%; increase of exudate volume compared to vehicle control (carrageenin pleurisy [2]; 24 hours, 3 μmoles/kg SnPP, 2 doses s.c.): 70%; effect on exudate volume at highest dose (carrageenin pleurisy [2]; 24 hours, SnPP 30 μmoles/kg): increased exudate volume further; effect on inflammatory cell number at highest dose (carrageenin pleurisy [2]; 24 hours, SnPP 30 μmoles/kg, likely a toxic effect): decrease in inflammatory cell number"
"COC(=O)[C@@H](N)CCCNC(=N)N[N+](=O)[O-] [L-NAME, NG-nitro-L-arginine methyl ester]",,,,,,,,,not modified; also recorded: no effect,dose dependent increase; also recorded: increased activity,"increase in brain HO activity ([4]; 5 mM L-NAME, vs control without compound): 80%"
